The text below walks through data of patent US12577206B2 (BRISTOL-MYERS SQUIBB COMPANY, priority 2020, dated 2026).

Experiment [1] has as its target T1, human FPR1 (Homo sapiens, UniProt P21462).
T1 sequence (P21462 1-350): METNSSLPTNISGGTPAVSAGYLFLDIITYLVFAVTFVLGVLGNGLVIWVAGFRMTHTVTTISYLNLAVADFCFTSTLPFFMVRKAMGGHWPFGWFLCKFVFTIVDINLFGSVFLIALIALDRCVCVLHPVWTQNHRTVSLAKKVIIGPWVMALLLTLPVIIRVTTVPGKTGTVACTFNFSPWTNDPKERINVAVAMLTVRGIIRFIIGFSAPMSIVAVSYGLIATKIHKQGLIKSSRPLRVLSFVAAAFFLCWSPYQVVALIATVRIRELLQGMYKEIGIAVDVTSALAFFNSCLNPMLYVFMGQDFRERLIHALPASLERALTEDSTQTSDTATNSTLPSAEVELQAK
Description: FPR1 cyclic adenosine monophosphate (cAMP) assay. Format: cell-based. To be noted: CHO cells overexpressing human FPR1; forskolin 10 μM; inhibition of cAMP production; HTRF; read-out: hFPR1 cAMP2 EC50. Put shortly:
(§1)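 Inhibition of forskolin-stimulated cAMP (final forskolin 5 μM for FPR2, 10 μM for FPR1; IBMX 200 μM) was measured by HTRF in recombinant CHO cells after 30 min at room temperature.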
A general note: cAMP levels reflect the balance of adenylyl cyclase and phosphodiesterase activity.

For experiment [2], the target named is T2, human FPR2 (Homo sapiens, UniProt P25090).
T2 sequence (P25090 1-351): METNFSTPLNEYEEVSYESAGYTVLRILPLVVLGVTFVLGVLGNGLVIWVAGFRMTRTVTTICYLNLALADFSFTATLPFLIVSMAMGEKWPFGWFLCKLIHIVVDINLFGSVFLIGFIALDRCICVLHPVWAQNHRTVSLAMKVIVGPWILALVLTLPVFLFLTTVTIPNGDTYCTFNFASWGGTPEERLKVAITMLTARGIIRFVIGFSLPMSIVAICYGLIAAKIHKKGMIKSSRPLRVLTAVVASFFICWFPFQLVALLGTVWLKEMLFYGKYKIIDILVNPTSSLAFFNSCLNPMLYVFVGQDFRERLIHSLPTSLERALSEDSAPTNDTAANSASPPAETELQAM
Kind of experiment: FPR2 cyclic adenosine monophosphate (cAMP) assay. To be noted: CHO cells overexpressing human FPR2; forskolin 5 μM; inhibition of cAMP production; HTRF; read-out: hFPR2 cAMP2 EC50. Format: cell-based. The gist of the method: as §1

For the compound `COc1cc(F)c(-c2c(NC(=O)c3ccc(OC(F)F)cc3)c(=O)n(-c3cc(Cl)ccn3)n2C)c(F)c1` [Example 152, N-[2-(4-chloropyridin-2-yl)-5-(2,6-difluoro-4-methoxyphenyl)-1-methyl-3-oxo-2,3-dihydro-1H-pyrazol-4-yl]-4-(difluoromethoxy)benzamide], the figures for the EC50 in experiment [1] and in experiment [2] were > 10000 nM and 10 nM, respectively.
The like results for `COc1cc(F)c(-c2c(NC(=O)c3ccc(OC(F)(F)F)cc3)c(=O)n(-c3cc(Cl)ccn3)n2C)c(F)c1` [Example 153, N-[2-(4-chloropyridin-2-yl)-5-(2,6-difluoro-4-methoxyphenyl)-1-methyl-3-oxo-2,3-dihydro-1H-pyrazol-4-yl]-4-(trifluoromethoxy)benzamide] were, in that order, 4200 nM and 5 nM.
The corresponding values for `COc1cc(F)c(-c2c(NC(=O)c3ccc(OC(F)(F)F)cc3)c(=O)n(-c3ncccc3C(F)(F)F)n2C)c(F)c1` [Example 154, N-[5-(2,6-difluoro-4-methoxyphenyl)-1-methyl-3-oxo-2-[3-(trifluoromethyl)pyridin-2-yl]-2,3-dihydro-1H-pyrazol-4-yl]-4-(trifluoromethoxy)benzamide] are > 10000 nM and 4 nM.
The like results for `COc1cc(F)c(-c2c(NC(=O)c3ccc(OC(F)(F)F)cc3)c(=O)n(-c3cccc(C(F)(F)F)n3)n2C)c(F)c1` [Example 155, N-[5-(2,6-difluoro-4-methoxyphenyl)-1-methyl-3-oxo-2-[6-(trifluoromethyl)pyridin-2-yl]-2,3-dihydro-1H-pyrazol-4-yl]-4-(trifluoromethoxy)benzamide] were, in that order, 2200 nM and 9 nM.
As to `COc1cc(F)c(-c2c(NC(=O)c3ccc(OC(F)F)cc3)c(=O)n(-c3cccc(C(F)(F)F)n3)n2C)c(F)c1` [Example 156, N-[5-(2,6-difluoro-4-methoxyphenyl)-1-methyl-3-oxo-2-[6-(trifluoromethyl)pyridin-2-yl]-2,3-dihydro-1H-pyrazol-4-yl]-4-(difluoromethoxy)benzamide], the concentration giving a half-maximal response (EC50) in experiment [1] came out at 4000 nM; in experiment [2], 15 nM.
The corresponding values for `COc1cc(F)c(-c2c(NC(=O)c3ccc(OC(F)F)cc3)c(=O)n(-c3nc(C(F)(F)F)ccc3C#N)n2C)c(F)c1` [Example 157, N-{2-[3-cyano-6-(trifluoromethyl)pyridin-2-yl]-5-(2,6-difluoro-4-methoxyphenyl)-1-methyl-3-oxo-2,3-dihydro-1H-pyrazol-4-yl}-4-(difluoromethoxy)benzamide] are > 10000 nM and 4 nM.
With `COc1cc(F)c(-c2c(NC(=O)c3ccc(OC(F)F)cc3)c(=O)n(-c3ncccc3OC(F)F)n2C)c(F)c1` [Example 158, N-[5-(2,6-difluoro-4-methoxyphenyl)-2-[3-(difluoromethoxy)pyridin-2-yl]-1-methyl-3-oxo-2,3-dihydro-1H-pyrazol-4-yl]-4-(difluoromethoxy)benzamide], the EC50 in experiment [1] is > 10000 nM; in experiment [2], 13 nM.
The like results for `COc1cc(F)c(-c2c(NC(=O)c3ccc(OC(F)F)cc3)c(=O)n(-c3nc(C(F)(F)F)ccc3Br)n2C)c(F)c1` [Example 159, N-{2-[3-bromo-6-(trifluoromethyl)pyridin-2-yl]-5-(2,6-difluoro-4-methoxyphenyl)-1-methyl-3-oxo-2,3-dihydro-1H-pyrazol-4-yl}-4-(difluoromethoxy)benzamide] were, in that order, > 10000 nM and 7 nM.
The like results for `COc1cc(F)c(-c2c(NC(=O)c3ccc(OC(F)F)cc3)c(=O)n(-c3nc(C4CC4)ccc3Br)n2C)c(F)c1` [Example 160, N-[2-(3-bromo-6-cyclopropylpyridin-2-yl)-5-(2,6-difluoro-4-methoxyphenyl)-1-methyl-3-oxo-2,3-dihydro-1H-pyrazol-4-yl]-4-(difluoromethoxy)benzamide] were, in that order, > 10000 nM and 3 nM.
The like results for `COc1cc(F)c(-c2c(NC(=O)c3ccc(OC(F)F)cc3)c(=O)n(-c3nc(C4CC4)ccc3C#N)n2C)c(F)c1` [Example 161, N-[2-(3-cyano-6-cyclopropylpyridin-2-yl)-5-(2,6-difluoro-4-methoxyphenyl)-1-methyl-3-oxo-2,3-dihydro-1H-pyrazol-4-yl]-4-(difluoromethoxy)benzamide] were, in that order, > 10000 nM and 4 nM.
In the case of `COc1cc(-n2c(=O)c(NC(=O)c3ccc(OC(F)F)cc3)c(-c3c(F)cc(OC)cc3F)n2C)nc(C(F)(F)F)c1` [Example 162, N-[5-(2,6-difluoro-4-methoxyphenyl)-2-[4-methoxy-6-(trifluoromethyl)pyridin-2-yl]-1-methyl-3-oxo-2,3-dihydro-1H-pyrazol-4-yl]-4-(difluoromethoxy)benzamide], the concentration for a half-maximal effect (EC50) is > 10000 nM in experiment [1] and 12 nM in experiment [2].
The like results for `CCc1cccc(-n2c(=O)c(NC(=O)c3ccc(OC(F)F)cc3)c(-c3c(F)cc(OC)cc3F)n2C)n1` [Example 163, N-[5-(2,6-difluoro-4-methoxyphenyl)-2-(6-ethylpyridin-2-yl)-1-methyl-3-oxo-2,3-dihydro-1H-pyrazol-4-yl]-4-(difluoromethoxy)benzamide] were, in that order, > 10000 nM and 4 nM.
For `COc1cc(F)c(-c2c(NC(=O)c3ccc(Cl)cc3)c(=O)n(-c3ncccc3Cl)n2C)c(F)c1` [Example 164, 4-chloro-N-[2-(3-chloropyridin-2-yl)-5-(2,6-difluoro-4-methoxyphenyl)-1-methyl-3-oxo-2,3-dihydro-1H-pyrazol-4-yl]benzamide], the values for the EC50 in experiment [1] and in experiment [2] were > 10000 nM and 15 nM, respectively.
In the case of `COc1cc(F)c(-c2c(NC(=O)c3ccc(OC(F)F)cc3)c(=O)n(-c3ncccc3Br)n2C)c(F)c1` [Example 165, N-[2-(3-bromopyridin-2-yl)-5-(2,6-difluoro-4-methoxyphenyl)-1-methyl-3-oxo-2,3-dihydro-1H-pyrazol-4-yl]-4-(difluoromethoxy)benzamide], the EC50 was > 10000 nM in experiment [1] and 15 nM in experiment [2].
The like results for `CCc1cccnc1-n1c(=O)c(NC(=O)c2ccc(OC(F)F)cc2)c(-c2c(F)cc(OC)cc2F)n1C` [Example 166, N-[5-(2,6-difluoro-4-methoxyphenyl)-2-(3-ethylpyridin-2-yl)-1-methyl-3-oxo-2,3-dihydro-1H-pyrazol-4-yl]-4-(difluoromethoxy)benzamide] were, in that order, > 10000 nM and 20 nM.
The corresponding values for `COc1cc(F)c(-c2c(NC(=O)c3ccc(OC(F)(F)F)cc3)c(=O)n(-c3cccc(C4CC4)n3)n2C)c(F)c1` [Example 167, N-[2-(6-cyclopropylpyridin-2-yl)-5-(2,6-difluoro-4-methoxyphenyl)-1-methyl-3-oxo-2,3-dihydro-1H-pyrazol-4-yl]-4-(trifluoromethoxy)benzamide] are 460 nM and 4 nM.
Turning to `COc1cc(F)c(-c2c(NC(=O)c3ccc(OC(F)F)cc3)c(=O)n(-c3cccc(OC(F)F)n3)n2C)c(F)c1` [Example 168, N-[5-(2,6-difluoro-4-methoxyphenyl)-2-[6-(difluoromethoxy)pyridin-2-yl]-1-methyl-3-oxo-2,3-dihydro-1H-pyrazol-4-yl]-4-(difluoromethoxy)benzamide], the values for the half-maximal effective concentration (EC50) in experiment [1] and in experiment [2] were > 10000 nM and 12 nM, respectively.
The corresponding values for `COc1cc(F)c(-c2c(NC(=O)c3ccc(OC(F)(F)F)cc3)c(=O)n(-c3cccc(OC(F)F)n3)n2C)c(F)c1` [Example 169, N-[5-(2,6-difluoro-4-methoxyphenyl)-2-[6-(difluoromethoxy)pyridin-2-yl]-1-methyl-3-oxo-2,3-dihydro-1H-pyrazol-4-yl]-4-(trifluoromethoxy)benzamide] are 1400 nM and 15 nM.
Turning to `COc1cc(F)c(-c2c(NC(=O)c3ccc(OC(F)(F)F)cc3)c(=O)n(-c3cccnc3C#N)n2C)c(F)c1` [Example 170, N-[2-(2-cyanopyridin-3-yl)-5-(2,6-difluoro-4-methoxyphenyl)-1-methyl-3-oxo-2,3-dihydro-1H-pyrazol-4-yl]-4-(trifluoromethoxy)benzamide], the figures for the EC50 in experiment [1] and in experiment [2] were > 10000 nM and 8 nM, respectively.
The like results for `COc1cc(F)c(-c2c(NC(=O)c3ccc(OC(F)F)cc3)c(=O)n(-c3ccccc3Cl)n2C)c(F)c1` [Example 171, N-[2-(2-chlorophenyl)-5-(2,6-difluoro-4-methoxyphenyl)-1-methyl-3-oxo-2,3-dihydro-1H-pyrazol-4-yl]-4-(difluoromethoxy)benzamide] were, in that order, > 10000 nM and 12 nM.

One may read the EC50 as the concentration giving half of the maximal effect.
